{
  "source": "patent US20240398767A1",
  "about": "“INHIBITORS OF THE MTDH-SND1 PROTEIN COMPLEX FOR CANCER THERAPY” (The Trustees of Princeton University, priority 2021, published 2024)",
  "key": {"[1]": {"target": "T1, MTDH-SND1 interaction in SCP28 tumors (Homo sapiens, UniProt Q7KZF4)", "T1 construct": "SND1-NLuc and CLuc-MTDH flanked by BamH 1 and Not 1 restriction sites were inserted into pcDNA3.1 and pRVPTO (retrovrial) vectors; expressed in transfected cells; host or cells: SCP28 cells stably transduced with pRVPTO retroviral vectors (packaged in H29 cells); in culture (A5) or as orthotopic tumours in NSG mice (A11)", "T1 sequence (Q7KZF4 with tags, fused parts or gaps)": "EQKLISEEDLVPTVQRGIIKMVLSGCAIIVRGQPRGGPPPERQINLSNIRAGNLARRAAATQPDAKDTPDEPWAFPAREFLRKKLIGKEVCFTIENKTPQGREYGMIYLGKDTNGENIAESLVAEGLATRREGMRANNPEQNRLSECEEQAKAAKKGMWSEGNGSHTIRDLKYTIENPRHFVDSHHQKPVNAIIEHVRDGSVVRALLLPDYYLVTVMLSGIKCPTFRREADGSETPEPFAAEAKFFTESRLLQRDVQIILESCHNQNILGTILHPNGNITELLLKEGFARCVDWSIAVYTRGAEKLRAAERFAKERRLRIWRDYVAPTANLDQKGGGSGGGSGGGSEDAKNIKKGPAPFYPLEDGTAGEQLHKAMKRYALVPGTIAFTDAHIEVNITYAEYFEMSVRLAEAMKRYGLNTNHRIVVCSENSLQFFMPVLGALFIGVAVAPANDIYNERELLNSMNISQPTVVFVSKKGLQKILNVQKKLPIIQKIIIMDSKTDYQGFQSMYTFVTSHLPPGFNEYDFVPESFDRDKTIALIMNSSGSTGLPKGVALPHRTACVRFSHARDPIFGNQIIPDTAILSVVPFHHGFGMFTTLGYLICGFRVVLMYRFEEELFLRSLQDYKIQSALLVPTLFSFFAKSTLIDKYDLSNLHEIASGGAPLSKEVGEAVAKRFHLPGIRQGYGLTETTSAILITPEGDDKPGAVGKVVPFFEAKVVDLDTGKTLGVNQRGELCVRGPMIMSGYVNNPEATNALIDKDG", "experiment": "In vivo split-luciferase bioluminescence in SCP28 tumors", "set-up": "species or system NSG female mice", "conditions": "0.25 mg or 0.5 mg via tail-vein injection, 30 min after treatment", "method": "FIG. 12A, NSG female mice were inoculated with 10 k of SCP28 cells that express split-luciferase components by MFP injection. Two weeks after injection, the mice were treated with 0.25 mg/mouse or 0.5 mg/mouse of C26-A6 via tail-vein injection. 30 min after the treatment, luciferase activity at primary tumors was measured.\nFIG. 12B, Luciferase activity at primary tumors from mice in FIG. 12A. Data represent mean±SEM. n=3 mice. Significance determined by one-way ANOVA analysis with Dunnett's test for multiple comparisons.\nTo test the in vivo blocking effect of C26-A6 on MTDH-SND1 interaction, mice with SCP28 tumors that stably express split-luciferase components were treated with vehicle, 0.25 mg or 0.5 mg of C26-A6 via tail-vein injection followed by bioluminescence imaging."}, "[2]": {"system": "SCP28 tumors with MTDH or SND1 KD", "experiment": "SCP28 tumor models with MTDH or SND1 KD", "format": "in vivo, NSG females", "method": "FIG. 17A, Indicated cells were injected into NSG females orthotopically and followed by vehicle or C26-A6 treatment after 2 weeks. Tumor volumes were measured 8 weeks after injection. Vehicle, n=6 mice; C26-A6, n=6 mice.\nFIG. 17B, Spontaneous lung metastasis of the mice in FIG. 17A were assessed by BLI (right). Size bar, 5 mm. Vehicle, n=5 lungs; C26-A6, n=6 lungs.\nFIG. 17C, The SND1 and MTDH expression of the cells used in FIG. 17A was evaluated.\nNext, to further validate that the anti-tumor effect of C26-A6 depends on its on-target effects by disrupting MTDH-SND1 complex, PyMT; UBC-Cre^ERT+/−;Mtdh^fl/fl tumor cells with Mtdh depletion or with endogenous Snd1 KD were employed for the similar assay as in FIG. 5-1a. […] Likewise, MTDH or SND1 KD abolished the C26-A6 treatment-induced primary tumor inhibition or metastasis reduction in SCP28 tumor models (Extended Data FIG. 10-1a-c)."}, "4TO7 lung metastases": {"system": "4TO7 lung metastases", "experiment": "Established 4TO7 lung macrometastases", "format": "in vivo, Balb/C females", "method": "For FIGS. 7A-7D, 2 k 4TO7 cells were injected into Balb/C females. 2 weeks after the injections, the mice were randomized based on lung metastasis that indicated by BLI, and were divided into four groups followed by vehicle, paclitaxel (Pac), and C26-A6 treatment alone or in combination. For Pac, the mice were treated with 20 mg/kg of Pac twice per week for the first two week and then once per week after that, For C26-A6, the mice were treated with 15 mg/kg of C26-A6 5 days per week. n=6 mice per group. Data represent mean±SEM.\nFIG. 7A, Representative mice right before the treatment (week 2) and at week 10 are shown.\nFIG. 7B, The BLI signal was quantified at week 2. Significance determined by one-way ANOVA analysis with Dunnett's test for multiple comparisons.\nFIG. 7C, The metastasis progression of each individual is shown.\nFIG. 7D, Survival rate in each group was analyzed. Significance determined by two-sided Log-rank test.\nLastly, to mimic the clinical scenario of adjuvant chemotherapy following surgical removal of the primary tumors, SCP28 mammary tumors were removed when they reached 5 mm in diameter, the mice were then randomly separated into four groups and subjected to the different treatment regimens as above. […] The mice were then treated with vehicle or paclitaxel and C26-A6 alone or in combination, and the metastasis progression was monitored by BLL."}},
  "data": [
    {"smiles": "COc1ccc(Cl)cc1S(=O)(=O)Nc1cccn2nc(C)nc12", "note": "[Analog C26-A6]", "values": [
      {"measurement": "MTDH-SND1 interaction in vivo (luciferase activity at primary tumors)", "setting": "[1]", "value": "blocks MTDH-SND1 interaction in vivo in a dose-dependent manner"},
      {"measurement": "C26-A6 treatment-induced primary tumor inhibition or metastasis reduction", "setting": "[2]", "value": "abolished"},
      {"measurement": "metastatic growth (BLI)", "setting": "4TO7 lung metastases; Pac 20 mg/kg, C26-A6 15 mg/kg 5 days per week", "value": "slowed down metastatic growth"},
      {"measurement": "metastasis shrinkage", "setting": "4TO7 lung metastases; six mice per group", "value": "did not result in metastasis shrinkage"}
    ]}
  ]
}
